Results taken from ChEMBL document CHEMBL1799910, “Optimization of 1,2,3,4-tetrahydroacridin-9(10H)-ones as antimalarials utilizing structure-activity and structure-property relationships” (J Med Chem, 2011).
Converted amounts (≈) assume the structure as drawn.

How the values were obtained:
[1] = Partition coefficient, log D of the compound at pH 7.4 by HPLC analysis; details: octanol/water
Plasmodium falciparum [2] = assay: Antimalarial activity against chloroquine, mefloquine, pyrimethamine and atovaquone-resistant Plasmodium falciparum TM90-C2B infected in human A positive erythrocytes after 72 hrs by SYBR Green I assay; format: functional, organism-based
[3] = Stability in mouse liver microsomes; format: ADME, Microsome; details: liver microsomes
[4] = Aqueous solubility of compound at pH 7.4 by HPLC analysis; details: buffer
[5] = Permeability of the compound by PAMPA method at pH 7.4; format: ADME; details: read-out: permeability
J774 = assay: Cytotoxicity against mouse J774 cells after 72 hrs by Cell titer 96 aqueous one solution cell proliferation assay; format: cell-based; details: J774, 72 h
[6] = Cytotoxicity index, ratio of EC50 for mouse J774 cells to EC50 for chloroquine, mefloquine, pyrimethamine and atovaquone-resistant Plasmodium falciparum TM90-C2B; format: cell-based; details: read-out: Ratio EC50
Plasmodium falciparum [7] = assay: Antimalarial activity against chloroquine and pyrimethamine-resistant Plasmodium falciparum W2 infected in human A positive erythrocytes after 72 hrs by SYBR Green I assay; format: functional, organism-based; details: W2, 72 h
Plasmodium falciparum [8] = assay: Resistance index, ratio of EC50 for chloroquine, mefloquine, pyrimethamine and atovaquone-resistant Plasmodium falciparum TM90-C2B to EC50 for chloroquine and pyrimethamine-resistant Plasmodium falciparum W2; format: functional

Row | SMILES | logD [1] | EC50 (Plasmodium falciparum [2]) | half-life [3] | solubility [4] | Papp [5] | EC50 (J774) | selectivity ratio [6] | EC50 (Plasmodium falciparum [7]) | Ratio EC50 (Plasmodium falciparum [8])
1 | COc1ccc2c(=O)c3c([nH]c2c1)CCC(C)(C)C3 | 2.2 | 175 nM | 77 min | 61 µM (≈ 15.7 µg/mL) | 88 ×10⁻⁶ cm/s | > 40000 nM | ≥ 100 | 54.3 nM | 3.22
2 | COc1ccc2c(=O)c3c([nH]c2c1)CC(C)(C)CC3 | 2.2 | 112 nM | 24.8 min | 92 µM (≈ 23.7 µg/mL) | 64 ×10⁻⁶ cm/s | > 40000 nM | ≥ 100 | 355 nM | 0.32
3 | Cc1cc(Oc2ccc(OC(F)(F)F)cc2)ccc1-c1ccc2[nH]c3c(c(=O)c2c1)CSCC3 | 3.6 | 326 nM | 15.1 min | 7 µM (≈ 3.38 µg/mL) | < 1 ×10⁻⁶ cm/s | > 5000 nM | ≥ 100 | 27.7 nM | 11.8
4 | O=c1c2c([nH]c3ccc(-c4ccc(COc5ccc(OC(F)(F)F)cc5)cc4)cc13)CCSC2 | 3.5 | 2840 nM | – | 12 µM (≈ 5.8 µg/mL) | 3 ×10⁻⁶ cm/s | > 10000 nM | ≥ 100 | 129 nM | 22
5 | O=c1c2c([nH]c3ccc(-c4ccc(COc5ccccc5)cc4)cc13)CCSC2 | 2.8 | 706 nM | – | 1 µM (≈ 0.4 µg/mL) | 7 ×10⁻⁶ cm/s | > 1000 nM | ≥ 100 | 44.5 nM | 15.9
6 | O=c1c2c([nH]c3ccc(-c4ccc(OCc5ccccc5)cc4)cc13)CCSC2 | 2.8 | 370 nM | – | 1 µM (≈ 0.4 µg/mL) | < 1 ×10⁻⁶ cm/s | > 1000 nM | ≥ 100 | 35.9 nM | 10.3
7 | O=c1c2c([nH]c3ccc(-c4ccc(C(F)(F)F)cc4)cc13)CCSC2 | 2.4 | 293 nM | 11.2 min | 10 µM (≈ 3.61 µg/mL) | < 1 ×10⁻⁶ cm/s | > 10000 nM | ≥ 100 | 101 nM | 2.9
8 | O=c1c2c([nH]c3cc(-c4c(F)cccc4F)ccc13)CCCC2 | 3 | 25.3 nM | – | 0.3 µM (≈ 0.0934 µg/mL) | 339 ×10⁻⁶ cm/s | > 100 nM | ≥ 100 | 72.3 nM | 0.35
9 | CN(C)c1ccc(-c2ccc3c(=O)c4c([nH]c3c2)CCCC4)cc1 | 1.3 | 161 nM | – | 11 µM (≈ 3.5 µg/mL) | 199 ×10⁻⁶ cm/s | > 10000 nM | ≥ 100 | 99.2 nM | 1.62
10 | COc1ccc2c(=O)c3c([nH]c2c1)CCCC3 | 1.9 | 99.9 nM | 6.8 min | 82 µM (≈ 18.8 µg/mL) | 25 ×10⁻⁶ cm/s | > 40000 nM | ≥ 100 | 89.9 nM | 1.11
11 | Cc1cccc2c(=O)c3c([nH]c12)CCCC3 | 1.9 | 888 nM | 6.4 min | 47 µM (≈ 10 µg/mL) | 26 ×10⁻⁶ cm/s | > 40000 nM | ≥ 100 | 2200 nM | 0.4
12 | Cc1ccc2c(=O)c3c([nH]c2c1)CCCC3 | 2 | 152 nM | 20.1 min | 89 µM (≈ 19 µg/mL) | 27 ×10⁻⁶ cm/s | > 40000 nM | ≥ 100 | 150 nM | 1.01
13 | O=c1c2c([nH]c3cc(Cl)c(Cl)cc13)CCCC2 | 2.6 | 341 nM | – | 1 µM (≈ 0.268 µg/mL) | 180 ×10⁻⁶ cm/s | > 1000 nM | ≥ 100 | 321 nM | 1.06
14 | O=c1c2c([nH]c3c(F)ccc(F)c13)CCCC2 | 1.3 | 1320 nM | – | 159 µM (≈ 37.4 µg/mL) | 12 ×10⁻⁶ cm/s | > 40000 nM | ≥ 100 | 804 nM | 1.64
15 | O=c1c2c([nH]c3c(F)cc(F)cc13)CCCC2 | 1.7 | 405 nM | – | 66 µM (≈ 15.5 µg/mL) | 29 ×10⁻⁶ cm/s | > 40000 nM | ≥ 100 | 2690 nM | 0.15
16 | O=c1c2c([nH]c3cc(F)cc(F)c13)CCCC2 | 1.5 | 45 nM | 3.6 min | 3 µM (≈ 0.706 µg/mL) | 13 ×10⁻⁶ cm/s | > 2000 nM | ≥ 100 | 16.5 nM | 2.72
17 | O=c1c2c([nH]c3c(F)c(F)ccc13)CCCC2 | 1.9 | 378 nM | – | 93 µM (≈ 21.9 µg/mL) | 38 ×10⁻⁶ cm/s | > 40000 nM | ≥ 100 | 1050 nM | 0.36

Row | SMILES | logD [1] | EC50 (Plasmodium falciparum [2]) | half-life [3] | solubility [4] | Papp [5] | EC50 (J774) | selectivity ratio [6] | EC50 (Plasmodium falciparum [7]) | Ratio EC50 (Plasmodium falciparum [8])
18 | O=c1c2c([nH]c3cc(F)c(F)cc13)CCCC2 | 1.9 | 118 nM | – | 18 µM (≈ 4.23 µg/mL) | 28 ×10⁻⁶ cm/s | > 10000 nM | ≥ 100 | 129 nM | 0.91
19 | COc1cc2c(=O)c3c([nH]c2cc1Cl)CCCC3 | 1.3 | 11.5 nM | – | 33 µM (≈ 8.7 µg/mL) | 24 ×10⁻⁶ cm/s | > 20000 nM | ≥ 100 | 35.2 nM | 0.33
20 | COc1cc2[nH]c3c(c(=O)c2cc1Cl)CCCC3 | 2.2 | 24.1 nM | – | 17 µM (≈ 4.48 µg/mL) | 85 ×10⁻⁶ cm/s | > 10000 nM | ≥ 100 | 30.6 nM | 0.79
21 | COc1cc2[nH]c3c(c(=O)c2cc1Cl)CSCC3 | 1 | 130 nM | – | 13 µM (≈ 3.66 µg/mL) | 101 ×10⁻⁶ cm/s | > 10000 nM | ≥ 100 | 26.3 nM | 4.94
22 | COc1cc2[nH]c3c(c(=O)c2cc1Cl)CC(F)(F)CC3 | 2.1 | 5.6 nM | 8.5 min | 10 µM (≈ 3 µg/mL) | 107 ×10⁻⁶ cm/s | > 10000 nM | ≥ 100 | 76.7 nM | 0.07
23 | O=c1c2c([nH]c3ccc(Cl)cc13)CCC(F)(F)C2 | 2 | 226 nM | 40.8 min | 4 µM (≈ 1.08 µg/mL) | 62 ×10⁻⁶ cm/s | > 2000 nM | ≥ 100 | 148 nM | 1.52
24 | COc1ccc2c(=O)c3c([nH]c2c1)CCC(F)(F)C3 | 1.6 | 351 nM | 15.8 min | 14 µM (≈ 3.71 µg/mL) | 39 ×10⁻⁶ cm/s | > 10000 nM | ≥ 100 | 343 nM | 1.02
25 | COc1cc2[nH]c3c(c(=O)c2cc1C)CCCC3 | 2 | 16.2 nM | – | 23 µM (≈ 5.6 µg/mL) | 50 ×10⁻⁶ cm/s | > 20000 nM | ≥ 100 | 34.8 nM | 0.46
26 | COc1cc2[nH]c3c(c(=O)c2cc1C)CSCC3 | 0.9 | 96.9 nM | – | 14 µM (≈ 3.66 µg/mL) | 68 ×10⁻⁶ cm/s | > 10000 nM | ≥ 100 | 113 nM | 0.86
27 | COc1cc2[nH]c3c(c(=O)c2cc1Cl)C[S+]([O-])CC3 (configuration not stated) | 1.3 | 1360 nM | 990 min | – | – | > 40000 nM | – | 4710 nM | –
28 | O=c1c2c([nH]c3ccc(-c4ccncc4)cc13)CCSC2 | 0.8 | 4990 nM | – | 45 µM (≈ 13.2 µg/mL) | 15 ×10⁻⁶ cm/s | > 20000 nM | ≥ 100 | 6210 nM | 0.8
29 | O=c1c2c([nH]c3ccc(-c4cccnc4)cc13)CCSC2 | 0.8 | 8490 nM | – | 37 µM (≈ 10.9 µg/mL) | 3 ×10⁻⁶ cm/s | > 20000 nM | ≥ 100 | 7620 nM | 1.11
30 | O=c1c2c([nH]c3ccc(-c4ccc(F)cc4F)cc13)CCSC2 | 3.6 | 78.4 nM | – | 7 µM (≈ 2.31 µg/mL) | 10 ×10⁻⁶ cm/s | > 5000 nM | ≥ 100 | 193 nM | 0.41
31 | Cc1cc(Cl)ccc1-c1ccc2[nH]c3c(c(=O)c2c1)CSCC3 | 2.4 | 23.2 nM | 8.4 min | 2 µM (≈ 0.684 µg/mL) | < 1 ×10⁻⁶ cm/s | > 2000 nM | ≥ 100 | 34.6 nM | 0.67
32 | O=c1c2c([nH]c3ccc(-c4ccc(OC(F)(F)F)cc4)cc13)CCSC2 | 2.5 | 58 nM | – | 1 µM (≈ 0.377 µg/mL) | < 1 ×10⁻⁶ cm/s | > 1000 nM | ≥ 100 | 95.1 nM | 0.61
33 | O=c1c2c([nH]c3ccc(-c4cccc(Oc5ccc(F)cc5)c4)cc13)CCSC2 | 2.8 | 143 nM | – | 0.3 µM (≈ 0.121 µg/mL) | 2 ×10⁻⁶ cm/s | > 100 nM | ≥ 100 | 40.9 nM | 3.5
34 | O=c1c2c([nH]c3ccccc13)CCCC2 | 3 | 325 nM | 18.2 min | 24 µM (≈ 4.78 µg/mL) | 10 ×10⁻⁶ cm/s | > 40000 nM | ≥ 100 | 719 nM | 0.45
